Reference: patent publication US20030144213A1, “Combination therapy of angiotensin converting enzyme inhibitor, side-effect reduced amount of aldosterone antagonist and diuretic for treatment of cardiovascular disease” (G.D. Searle & Co., priority 1996, published 2003)

Columns and labels:
[1] = tested on: patients with symptomatic heart failure; assay: Spironolactone dose-ranging clinical trial (12 weeks, added to ACE inhibitor, loop diuretic, optional digitalis)
[2] = tested on: hypertensive patients; conditions: cited from earlier work
[3] = tested on: hypertensive-rat cohort; conditions: sub-cutaneously; hypertensive rats; cited from earlier work
[4] = tested on: patients afflicted with congestive heart failure; conditions: coadministered with an ACE inhibitor; cited from earlier work
[5] = tested on: myocardial fibrosis in animal models; conditions: cited from earlier work

SMILES	Likelihood of hyperkalemia on captopril vs another ACE-I ([1]; background ACE-I)	Plasma aldosterone despite continued ACE inhibition [2]	Fibrosis [3]	Mean systolic and diastolic blood pressure (standing and supine) ([1]; 25 mg, 50 mg and 75 mg groups, all visits)	Change from baseline in body weight ([1]; 75 mg dose group, Day 9 and Week 4)	Change from baseline in PRA, dose-response ([1]; Day 9, Week 4 and Week 12 (P≦0.001))	Change from baseline in serum magnesium ([1]; Day 9 and Week 4 (p≦0.048), not at later visits)	Change from baseline in supine pulse, dose response ([1]; Week 4 (p-value=0.045))	Hematocrit and hemoglobin vs placebo ([1]; Week 12 (p=0.002; 0.005))	Urinary aldosterone excretion, dose response ([1]; Week 12 vs baseline (p=0.002))	N-Terminal Atrial Natriuretic Factor (ANF) change ([1]; all active treatments, Day 9, Week 4, Week 12)	Deaths during the drug treatment period ([1]; all doses, 12 weeks)	Change from baseline in serum potassium, dose-response ([1]; all treatment period visits (p<0.001))	Hyperkalemia adverse event, dose-response of incidence ([1]; p=0.001)	Patients who died within 30 days after the study was completed ([1]; previously at the 50 mg dose)	NYHA Class improvement ([1]; vs placebo, not statistically significant)	Patients in whom highly effective [4]	Myocardial fibrosis [5]
C[C@H](CS)C(=O)N1CCC[C@H]1C(=O)O [Captopril, captopril]	about one-third as likely to develop hyperkalemia	gradual return of plasma aldosterone to baseline levels																
CC(=O)S[C@@H]1CC2=CC(=O)CC[C@]2(C)[C@H]2CC[C@@]3(C)[C@@H](CC[C@@]34CCC(=O)O4)[C@H]12 [Spironolactone, 17-hydroxy-7α-mercapto-3-oxo-17α-pregn-4-ene-21-carboxylic acid γ-lactone acetate]			prevent fibrosis in the hypertensive-rat cohort	decreases in mean systolic and diastolic blood pressure	more weight loss than other patients	higher doses of spironolactone associated with greater increases in PRA	statistically significant dose-response	greater decreases in pulse in the supine position at higher doses	lower levels for the active treatment groups	Greater increases were seen at higher doses of spironolactone	decreases from baseline at all treatment visits	No deaths	Higher doses of spironolactone were associated with larger increases in potassium	clear dose-response in term of incidence	Three	trend toward improvement	13 of 16	prevents myocardial fibrosis in animal models
